Assay results from US8545898B2, “Broad-spectrum antiviral composition with excellent preservation stabilty” (Taiko Pharmaceutical Co., Ltd., priority 2007, dated 2013).
Like-named read-outs stand apart in the source and are kept apart here.

Tests used:
[1] = test system: canine parvovirus <CPV(Y-1)>; assay: Antiviral testing (canine parvovirus), TCID50 by swine hemagglutination test, CRFK cells; format: cell-based
[2] = biological target: human hepatitis B surface antigen (HBsAg) (Hepatitis B virus genotype C subtype adr, UniProt P12934); assay: Anti-HBsAg activity, HBsAg titer by chemiluminescent immunoassay; format: biochemical; details: 100 ppm; for HBsAg antigen titer: untreated 54 IU/ml
Protocol: For the antiviral testing, various concentrations of the chlorine dioxide solutions (agent A, agent B) were prepared and left in respective containers made of synthetic resin for 8 months. Specifically, each of the chlorine dioxide solutions obtained in each of Examples 1 and 2 was placed in a container having an opening with a diameter of 2 cm, and after closing a screw-cap, the container was left at room temperature for 8 months. Subsequently, an antiviral activity effect of the solution was examined. As controls, sodium hypochlorite (agent C), stabilized chlorine dioxide (sodium chlorite) (agent D), and povidone-iodine (agent E) were used. The agents C to E were not preserved for 8 months, and subjected to the test immediately after the purchase.
Each agent was added to human hepatitis B surface antigen (HBsAg), and after 1, 2, 3 or 4 days of sensitization, the agent was neutralized with a sodium thiosulfate solution, and HBsAg titer was measured using a chemiluminescent immunoassay “Architect-HBsAg (manufactured by Dainabot Co., Ltd.)”. An anti-HBsAg activity of the agent was evaluated.

Chain of human hepatitis B surface antigen (HBsAg) (P12934 whole entry): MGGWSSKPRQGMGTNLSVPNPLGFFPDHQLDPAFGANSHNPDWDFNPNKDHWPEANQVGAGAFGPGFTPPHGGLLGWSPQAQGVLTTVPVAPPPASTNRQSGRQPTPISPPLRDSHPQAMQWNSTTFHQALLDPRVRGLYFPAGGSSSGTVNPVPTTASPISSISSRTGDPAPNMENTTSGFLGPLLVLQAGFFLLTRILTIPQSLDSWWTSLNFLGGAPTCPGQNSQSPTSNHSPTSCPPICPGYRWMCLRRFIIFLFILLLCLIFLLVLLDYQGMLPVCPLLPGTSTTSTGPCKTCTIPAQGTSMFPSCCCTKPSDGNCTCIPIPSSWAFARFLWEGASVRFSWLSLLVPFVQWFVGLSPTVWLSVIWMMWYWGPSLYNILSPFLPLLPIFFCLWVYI

Row | Molecule | CPV infectivity titer remaining ([1]; 10 ppm, after 180 seconds) [TCID50] | decrease in CPV infectivity titer ([1]; 100 ppm, after 120 seconds) [%] | anti-HBsAg activity ([2]; 1 to 4 days) | HBsAg antigen titer ([2]; sensitized time 1 day) [IU/ml] | HBsAg antigen titer ([2]; sensitized time 2 days) [IU/ml] | HBsAg antigen titer ([2]; sensitized time 3 days) [IU/ml] | HBsAg antigen titer ([2]; sensitized time 4 days) [IU/ml] | decrease in CPV infectivity titer [1]
1 | OCl [sodium hypochlorite, Sodium hypochlorite] | 100 | ≥ 99.99 | absence of an anti-HBsAg activity | 50 | 51 | 51 | 49 | –
2 | sodium chlorite [stabilized chlorine dioxide solution] | – | – | – | – | – | – | – | no decrease in the infectivity titer was observed
